Assay results as given in patent publication US20250034138A1, “Compounds and Compositions as C-Kit Kinase Inhibitors” (Enanta Pharmaceuticals, Inc., priority 2023, published 2025).
Read-outs that look alike come from different tables or passages of the source.

What was measured:
[1] = system: M-07e cells which endogenously express human c-KIT; experiment: M-07e Cellular Assay (SCF-mediated cell proliferation, CellTiter Glo); type: cell-based; conditions: read-out: M-07e EC50
Protocol: 2. M-07e Cellular Assay M-07e cells (Creative Bioarray, CSC-CO249) which endogenously express human c-KIT were used to evaluate the effect of compounds on stem cell factor (SCF)-mediated cell proliferation. M-07e cells were cultured in growth media (RPMI+10% FBS+1% penicillin/streptomycin+10 ng/mL GM-CSF) at 5E5-1.5E6 cells/mL, replenishing media every 3-4 days. 1.5E4 cells were seeded per well in 384 well tissue culture treated plates in 20 μL assay media (RPMI+10% FBS+1% penicillin/streptomycin) without growth factor stimulation and incubated at 37° C. in a CO2 humidity-controlled incubator. Twenty-four hours later, three-fold serially diluted test compounds in media containing SCF (at the previously determined EC90) were added to the plated M-07e cells and incubated for an additional 72 hours. Cell viability was determined by adding 25 μL CellTiter Glo (Promega) to the cells and the luminescence was measured using a Perkin Elmer Envision plate reader. The EC50 was determined using GraphPad Prism. […] EC50 ranges are reported as follows: […]

[2] = molecular target: T1, Recombinant human c-KIT kinase (Homo sapiens, UniProt P10721); experiment: c-KIT Kinase Chemiluminescence Assay (ADP-Glo); type: biochemical; conditions: recombinant human c-KIT 30-40 nM, ATP 50 μM, polyEY substrate, ADP-Glo luminescence
T1 construct: purchased Promega V4498
Text: Staurosporine (AM-2282) and Imatinib (STI571) were purchased from Selleck Chemicals LLC (Houston, TX). The c-KIT reference compound THB001 (EP-053504) was synthesized by Enanta Pharmaceuticals, Inc. (Watertown, MA). The c-KIT Kinase Enzyme System (V4498) and ADP-Glo™ Kinase Assay kit (V6930) were purchased from Promega (Madison, WI). DMSO (D2650) was purchased from Sigma-Aldrich (Burlington, MA). ECHO-650 acoustic liquid handling system (67492212) and 384-well LDV ECHO source plates (LP-0200) were purchased from Labcyte, Inc (San Jose, CA). Envision Multimode Plate Reader (2104/464466) and ProxiPlate-384 Plus White 384-shallow well microplates (6008280) were purchased from PerkinElmer (Waltham, MA).
1. c-KIT Kinase Chemiluminescence Assay:
IC50 determination. Test compounds were dispersed into a 384-well low volume while ProxiPlate microplate from a DMSO solution using an ECHO 650 acoustic dispenser to generate a 11-point, 3.162-fold dilution, concentration curve starting at 10 μM in duplicate. Kinase Reaction: The kinase assay was based on the recommended protocol by c-KIT Kinase Enzyme System from Promega. Recombinant human c-KIT kinase in 3 μL of assay buffer (40 mM Tris pH 7.5, 20 mM MgCl2, 0.1 mg/mL BSA and 50 μM DTT) was added to the test or high control wells and 3 μL of assay buffer was added to the low control wells. The microplate was centrifuged at 800 rotations per minute (rpm) for 60 s and incubated at room temperature (RT) for 30 min. Next, 2 μL of buffered ATP and polyEY substrate solution was added to all wells. The microplate was centrifuged at 800 rpm for 60 s and incubated at RT for 2 h. The final assay contained c-KIT (30-40 nM), ATP (50 μM), polyEY substrate (0.2 μg/μL), test compounds (0-10 μM) and DMSO (1.7%) in 5 μL assay buffer. ADP detection with ADP-Glo™ Kinase Assay: After the kinase reaction incubation, 5 μL of ADP-Glo™ reagent was added to all wells. The microplate was centrifuged at 800 rpm for 60 s and incubated at RT for 40 min. Ten microliter (10 μL) of Kinase Detection Reagent (Luciferin-Luciferase system) was then added to all wells. The microplate was centrifuged at 800 rpm for 60 s and incubated at RT for 60 min. Kinase activity was measured as increase in luminescence at RT in an Envision plate reader equipped with 560 nm filters and operating in endpoint mode.
Data Analysis: Endpoint chemiluminescence from high and low control wells were used to calculate normalized c-KIT activity at various concentrations of test compounds. The normalized activities were fitted to inhibitor-versus-normalized response fit in GraphPad Prism 7 to determine half-maximal inhibitory concentration (IC50) and hill coefficient values (H).
c-KIT activity (%)=100/(1+I^H/IC50^H). Where I is the inhibitor concentration and H is the Hill coefficient. IC50 ranges are reported as follows: A<100 nM; B 0.1-1 μM; C>1 μM.

[3] = SCF (EC90)-stimulated M-07e cell proliferation, 72 hours, CellTiter Glo

T1 sequence (P10721 26-976): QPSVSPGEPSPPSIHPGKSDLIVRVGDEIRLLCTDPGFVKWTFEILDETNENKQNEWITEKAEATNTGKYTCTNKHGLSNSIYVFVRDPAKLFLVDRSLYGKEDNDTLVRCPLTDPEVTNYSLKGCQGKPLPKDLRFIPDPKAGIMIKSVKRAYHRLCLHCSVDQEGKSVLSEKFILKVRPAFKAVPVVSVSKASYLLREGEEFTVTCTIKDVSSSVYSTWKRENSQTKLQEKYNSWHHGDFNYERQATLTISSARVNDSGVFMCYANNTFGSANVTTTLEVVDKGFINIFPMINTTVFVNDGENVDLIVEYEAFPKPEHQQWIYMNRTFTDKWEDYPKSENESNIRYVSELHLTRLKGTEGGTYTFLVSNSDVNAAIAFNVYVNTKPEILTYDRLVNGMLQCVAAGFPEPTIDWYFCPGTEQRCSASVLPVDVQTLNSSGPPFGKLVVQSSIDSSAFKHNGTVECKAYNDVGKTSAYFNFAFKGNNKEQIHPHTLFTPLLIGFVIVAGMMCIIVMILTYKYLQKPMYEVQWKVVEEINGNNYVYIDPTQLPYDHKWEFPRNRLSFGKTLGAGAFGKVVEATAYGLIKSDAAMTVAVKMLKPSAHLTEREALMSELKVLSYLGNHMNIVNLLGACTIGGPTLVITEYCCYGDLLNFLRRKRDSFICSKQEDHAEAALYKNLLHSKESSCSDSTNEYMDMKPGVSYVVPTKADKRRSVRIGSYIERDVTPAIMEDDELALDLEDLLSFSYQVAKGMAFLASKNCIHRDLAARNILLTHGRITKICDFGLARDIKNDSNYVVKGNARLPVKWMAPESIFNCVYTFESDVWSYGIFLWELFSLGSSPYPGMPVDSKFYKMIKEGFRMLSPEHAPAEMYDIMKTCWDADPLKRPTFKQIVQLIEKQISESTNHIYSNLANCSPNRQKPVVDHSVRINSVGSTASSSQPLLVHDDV

IC50 [2] | Compound | EC50 [1, 3] | EC50 ([1]; M-07e, 72 h)
< 100 nM | Cc1ccc(-c2nnc(C3CC(F)(F)C3)s2)cc1NC(=O)c1cnc2ccccn12 [Example 1-1] | < 100 nM | –
< 100 nM | Cc1ccc(-c2nnc([C@H]3C[C@@H]3F)s2)cc1NC(=O)c1cnc2ccccn12 [Example 1] | < 100 nM | –
100 to 1000 nM | Cc1ccc(-c2nnn(C3CC3)n2)cc1NC(=O)c1cnc2ccccn12 [Example 2] | < 100 nM | –
< 100 nM | Cc1ccc(-c2nnn(C3CC(F)(F)C3)n2)cc1NC(=O)c1cnc2ccccn12 [Example 3] | < 100 nM | –
< 100 nM | Cc1ccc(-c2nc(C3CC(F)(F)C3)cs2)cc1NC(=O)c1cnc2ccccn12 [Example 4] | 100 to 1000 nM | –
> 1000 nM | Cc1ccc(-c2nnc(C3CC3)n2C2CC2)cc1NC(=O)c1cnc2ccccn12 [Example 5] | > 1000 nM | –
> 1000 nM | Cc1ccc(-c2nc(C3CC3)nn2C)cc1NC(=O)c1cnc2ccccn12 [Example 6-1] | 100 to 1000 nM | –
< 100 nM | Cc1ccc(-c2nc3ccc(F)cn3n2)cc1NC(=O)c1cnc2ccccn12 [Example 6-2] | < 100 nM | –
< 100 nM | Cc1ccc(-c2nc3ccc(Cl)cn3n2)cc1NC(=O)c1cnc2ccccn12 [Example 6-3] | < 100 nM | –
100 to 1000 nM | Cc1ccc(-c2cn3c(n2)CCCC3)cc1NC(=O)c1cnc2ccccn12 [Example 6-4] | < 100 nM | –
100 to 1000 nM | Cc1ccc(-c2cn3c(n2)CCC3)cc1NC(=O)c1cnc2ccccn12 [Example 6-5] | 100 to 1000 nM | –
< 100 nM | Cc1ccc(-c2nc3cc(F)ccn3n2)cc1NC(=O)c1cnc2ccccn12 [Example 6-6] | < 100 nM | –
> 1000 nM | Cc1ccc(-c2nc3ccccn3n2)cc1NC(=O)c1cnc2ccccn12 [Example 6-7] | – | –
100 to 1000 nM | Cc1ccc(-c2nc3n(n2)[C@@H](c2ccccc2)C[C@H]3F)cc1NC(=O)c1cnc2ccccn12 [Example 6-8] | 100 to 1000 nM | –
< 100 nM | Cc1ccc(-c2nc3ccc(C(F)(F)F)cn3n2)cc1NC(=O)c1cnc2ccccn12 [Example 6-9] | < 100 nM | –
100 to 1000 nM | Cc1ccc(-c2nc3cccc(C(F)(F)F)n3n2)cc1NC(=O)c1cnc2ccccn12 [Example 6-10] | 100 to 1000 nM | –
> 1000 nM | Cc1ccc(-c2nnc3n2CCCC3)cc1NC(=O)c1cnc2ccccn12 [Example 6-11] | – | –
100 to 1000 nM | Cc1ccc(-c2nc3n(n2)CCCC3)cc1NC(=O)c1cnc2ccccn12 [Example 6-12] | 100 to 1000 nM | –
< 100 nM | Cc1ccc(-c2nc3n(n2)CCN(C(=O)OC(C)(C)C)C3)cc1NC(=O)c1cnc2ccccn12 [Example 6-13] | 100 to 1000 nM | –
< 100 nM | Cc1ccc(-c2nc3cc(C(F)(F)F)ccn3n2)cc1NC(=O)c1cnc2ccccn12 [Example 6-14] | < 100 nM | –
< 100 nM | Cc1ccc(-c2nc3cc(Cl)ccn3n2)cc1NC(=O)c1cnc2ccccn12 [Example 6-15] | 100 to 1000 nM | –
100 to 1000 nM | Cc1ccc(-c2nc3n(n2)CCNC3)cc1NC(=O)c1cnc2ccccn12 [Example 6-16] | > 1000 nM | –
100 to 1000 nM | Cc1ccc(-c2nc3n(n2)CCN(C(=O)[C@H]2C[C@@H]2F)C3)cc1NC(=O)c1cnc2ccccn12 [Example 6-18] | 100 to 1000 nM | –

IC50 [2] | Compound | EC50 [1, 3] | EC50 ([1]; M-07e, 72 h)
100 to 1000 nM | Cc1ccc(-c2nc3n(n2)CCN(C(=O)C2CC(F)(F)C2)C3)cc1NC(=O)c1cnc2ccccn12 [Example 6-19] | – | –
> 1000 nM | Cc1ccc(-c2nc3n(n2)CCN(C(=O)[C@H]2[C@@H]4CC(F)(F)C[C@@H]42)C3)cc1NC(=O)c1cnc2ccccn12 [Example 6-20] | – | –
< 100 nM | Cc1ccc(-c2nc3n(n2)C[C@H](C(F)(F)F)CC3)cc1NC(=O)c1cnc2ccccn12 [Example 6-21] | < 100 nM | –
< 100 nM | Cc1ccc(-c2nc3cc(C4CC4)ccn3n2)cc1NC(=O)c1cnc2ccccn12 [Example 6-23] | < 100 nM | –
< 100 nM | Cc1ccc(-c2nc3ccc(C4CC4)cn3n2)cc1NC(=O)c1cnc2ccccn12 [Example 6-24] | < 100 nM | –
100 to 1000 nM | Cc1ccc(-c2nc(C3CC3)n(C)n2)cc1NC(=O)c1cnc2ccccn12 [Example 6] | 100 to 1000 nM | –
< 100 nM | Cc1ccc(-c2cn(C3CC(F)(F)C3)nn2)cc1NC(=O)c1cnc2ccccn12 [Example 7] | < 100 nM | –
< 100 nM | Cc1ccc(-n2nnc(C3CC(F)(F)C3)n2)cc1NC(=O)c1cnc2ccccn12 [Example 8] | < 100 nM | –
100 to 1000 nM | Cc1ccc(-n2nnc(-c3ccc(F)cc3)n2)cc1NC(=O)c1cnc2ccccn12 [Example 9-1] | 100 to 1000 nM | –
100 to 1000 nM | Cc1ccc(-n2nnc(-c3cccc(F)c3)n2)cc1NC(=O)c1cnc2ccccn12 [Example 9-2] | 100 to 1000 nM | –
< 100 nM | Cc1ccc(-c2coc(C3CC(F)(F)C3)n2)cc1NC(=O)c1cnc2ccccn12 [Example 10] | < 100 nM | –
100 to 1000 nM | Cc1ccc(-c2coc([C@H]3C[C@@H]3F)n2)cc1NC(=O)c1cnc2ccccn12 [Example 11-1] | < 100 nM | –
< 100 nM | Cc1ccc(-c2nc3cc(F)ccc3o2)cc1NC(=O)c1cnc2ccccn12 [Example 11-2] | < 100 nM | –
100 to 1000 nM | Cc1ccc(-c2nc3ccccc3o2)cc1NC(=O)c1cnc2ccccn12 [Example 11-3] | < 100 nM | –
< 100 nM | Cc1ccc(-c2nc3ccccc3s2)cc1NC(=O)c1cnc2ccccn12 [Example 11-4] | 100 to 1000 nM | –
100 to 1000 nM | Cc1ccc(-c2nc3ccc(F)cc3o2)cc1NC(=O)c1cnc2ccccn12 [Example 11-5] | 100 to 1000 nM | –
< 100 nM | Cc1ccc(-c2nc3ccccc3[nH]2)cc1NC(=O)c1cnc2ccccn12 [Example 11-6] | < 100 nM | –
> 1000 nM | Cc1ccc(-c2nc3ccccc3n2C)cc1NC(=O)c1cnc2ccccn12 [Example 11-7] | 100 to 1000 nM | –
< 100 nM | Cc1ccc(-c2nc3ccc(F)cc3[nH]2)cc1NC(=O)c1cnc2ccccn12 [Example 11-8] | < 100 nM | –
< 100 nM | Cc1ccc(-c2nc3ccc(C(F)(F)F)cc3[nH]2)cc1NC(=O)c1cnc2ccccn12 [Example 11-9] | < 100 nM | –
> 1000 nM | Cc1ccc(-c2ncc(C3CC(F)(F)C3)n2COCC[Si](C)(C)C)cc1NC(=O)c1cnc2ccccn12 [Example 11-11] | – | –
100 to 1000 nM | Cc1ccc(-c2c[nH]c(C3CC(F)(F)C3)n2)cc1NC(=O)c1cnc2ccccn12 [Example 11] | 100 to 1000 nM | –

Compound | IC50 [2] | EC50 [1, 3] | EC50 ([1]; M-07e, 72 h)
Cc1ccc(-c2cnn(C3CC(F)(F)C3)n2)cc1NC(=O)c1cnc2ccccn12 [Example 11-10] | < 100 nM | < 100 nM | –
Cc1ccc(-n2cc(C3CC(F)(F)C3)nn2)cc1NC(=O)c1cnc2ccccn12 [Example 11-12] | < 100 nM | < 100 nM | –
Cc1ccc(-n2ncc3ccccc32)cc1NC(=O)c1cnc2ccccn12 [Example 11-13] | > 1000 nM | – | 100 to 1000 nM
